Reference: patent US20180256489A1, “NATURAL FORMULATIONS” (priority 2010, published 2018)

How the values were obtained:
[1] = Foaming by shaking in a covered glass cylinder; assay type: physicochemical; conditions: Table 5; 1 wt % calculated saponins in distilled water
Experimental: (§1) Foaming properties of a solution of 1 wt % of the extract of the invention in water were measured by shaking 10 ml of the solution five times in a 100 ml covered glass cylinder. The volume of the generated foam was measured. Another method for measuring the foaming was performed by Moulinex LM240 blender at a maximum speed of 10 seconds for 80 ml solution. The generated foam was transferred to glass cylinder and measured. The same procedure was repeated with extracts obtained by various ethanol/water mixtures. Foaming—solution of 1 wt % of the extract in water was shaken five times in a glass cylinder as described above. The volume of the generated foam was measured. Another method for measuring the foaming was performed by Moulinex LM240 blender at a maximum speed of 10 seconds for 80 ml solution and measured in a glass cylinder, and the foaming results are detailed in Table 4 below.

[2] = Foaming by Moulinex LM240 blender; assay type: physicochemical; conditions: Table 5; 1 wt % calculated saponins in distilled water
Experimental: as §1

[3] = tested on: erythrocytes of sheep blood; test: Haemolysis test (model for eye irritation); assay type: cell-based; conditions: 50% haemolysis, 30 minutes in ice, 540 nm
Experimental: Haemolysis test (which serves as a model for eye irritation) was conducted in order to determine the safety of the products of the invention in comparison to the commercial surfactant SLES (sodium lauryl ether sulfate).
Preparation of the erythrocyte suspension: erythrocytes of sheep blood were separated by centrifugation at 1250g, for 15 minutes at room temperature, washed three times with phosphate-buffered saline solution (PBS, pH 7.4), and centrifuged twice under the same condition. The blood volume was completed with PBS. This suspension was maintained at 4° C. for up to three days.
The assay procedure: 20 μl of each sample were diluted up to 2 ml of the suspension, and were incubated with for 30 minutes in ice. The incubation was terminated by a rapid, high-speed (1800 g) centrifugation for 30 minutes. The extent of haemolysis was determined in spectrophotometrically at 540 nm against a blank (PBS). The extent of haemolysis, expressed as a percentage, was calculated as the absorbance of an erythrocyte suspension incubated with each product, relative to that of a completely haemolysed control (100%, at distilled water) at 540 nm. The Hm50 (50% haemolysis) was determined from concentration—response curves.

Substance	Foam volume by shaking [1]	Foam volume by blender [2]	HM50 [3] [gram/100 ml]
decyl glycoside [1 wt % Decyl glycoside]	57 (±5) ml	420 (±15) ml	
sodium lauryl ether sulfate [SLES]			0.001
